In patent publication US12115182B2, “Adenosine A2A agonists for the treatment of cytokine storm syndrome” (priority 2021, dated 2024):
Entries after “also recorded” stand apart in the source; their conditions may differ.

Tests used:
[1] = system: MHS cells; experiment: RAGE shedding in alveolar macrophages (MHS): Western blot of sRAGE, immunofluorescence of RAGE; assay type: cell-based, mouse; conditions: PMA-treated MHS cells; GM6001 2 nM, regadenoson 100 nM, ATL146e 10 nM
[2] = day 7, Alzet minipump 80 μg/ml in PBS
[3] = system: circulating iNKT cells; experiment: Flow cytometry of CD69 on circulating iNKT cells of COVID-19 patients during regadenoson infusion; assay type: in vivo, human
[4] = cited from earlier work
[5] = system: plasma proinflammatory cytokines/chemokines; experiment: Luminex plasma cytokines/chemokines in regadenoson-treated COVID-19 patients; assay type: in vivo, human
[6] = system: plasma cytokines/chemokines; experiment: Plasma cytokines/chemokines in lung transplant recipients (11-plex); assay type: in vivo, human
Procedure: Blood was drawn for cytokine/chemokine, damage associated molecular patterns (DAMPs) at the following different timepoints: 1) before infusion (baseline), 2) 15 minutes before reperfusion of the 1st lung, 3) 30 minutes after reperfusion of 1st lung, 4) 30 minutes after reperfusion of 2nd lung, and 5) 6 hours after reperfusion of 1st lung.
The cytokines/chemokines, HMGB1 and sRAGE were determined at The University of Virginia Flow Cytometry Core (RRID: SCR 017829) as previously described (LAU et al., J Heart Lung Transplant, (2020), 39:563-570). The customized 11-plex cytokine panel detects IL-1, IL-2, IL-6, IL-7, IL-8, IL-10, IL-12P40, IL-12P70, IL-17, TNFa, and IFN-γ (Millipore Sigma, Burlington, MA).
Statistical differences of cytokine/chemokines, heart rates and blood pressures between groups were determined by two-way ANOVA followed by Tukey's multiple comparison test (GraphPad Prism 9.0). The PGD scores were analyzed by chi-squared test. The intubation times and hospital LOS, ICU LOS were analyzed by ANOVA of log and Kruskal-Wallis. Data was reported as means±SD. P value equal or less than 0.05 was considered significant.

Q: Which results are given for `CNC(=O)c1cnn(-c2nc(N)c3ncn([C@@H]4O[C@H](CO)[C@@H](O)[C@H]4O)c3n2)c1` [Regadenoson]?
A: PMA-induced shedding of cell membrane-anchored RAGE [1]: suppressed the shedding of RAGE; also recorded: partially inhibited; mean +/-SEM plasma level for Regadenoson [2]: 7.6 ± 1.3 ng/mL; expression of activation marker CD69 on circulating iNKT cells ([3]; 4 hours into the maintenance dose): significantly reduced; expression of activation marker CD69 on circulating iNKT cells ([3]; after the 30 min loading dose): significantly reduced; reduction of the fraction of circulating iNKT cells that are CD69+ ([3]; within 30 minutes): 50%; peak plasma level ([4]; 400 μg bolus over 10 seconds for myocardial perfusion imaging): about 15 ng/ml; steady-state plasma level ([4]; after infusion for 6 hours of 1.44 μg/kg/h, prior sickle cell disease trial): about 2 ng/ml; terminal half-life ([4]; in vivo): 2 h; safety / side effects ([4]; infusion at 1.44 μg/kg/h for 24-48 h, sickle cell crisis and lung transplantation): safe and devoid of side effects; measured cytokines reduced ([5]; 14-plex Luminex panel, after 4 hours of regadenoson infusion): Twelve of the fourteen; levels of 13 pro-inflammatory cytokines, ratio over baseline ([5]; 30 minutes after start of RA infusion): very little effect; pro-inflammatory cytokines reduced, ratio over baseline ([5]; 4.5 hours after start of RA infusion): 11 of 13; transplant-induced elevation of TNF-α ([6]; 30 minutes after reperfusion of 1st lung, low dose p=0.071, high dose p=0.154): trended toward reducing; transplantation-induced plasma levels of IL-6 ([6]; 30 minutes after reperfusion of 2nd lung, low dose p=0.041, high dose p=0.007 vs control): significantly inhibited; plasma IL-10 ([6]; low dose infusion, p=0.078): trended toward increasing; plasma levels of IL-8 ([6]; low dose, 30 minutes after reperfusion of 2nd lung, p=0.032): significantly reduced
